Assay results as given in publication PMC5576976 (Translational Oncology, 2017).

Target: IMP1 (insulin-like growth factor-2 mRNA-binding protein 1) (Homo sapiens, UniProt Q9NZI8)
Assay: fluorescence anisotropy/polarization microplate assay

IMP1 (insulin-like growth factor-2 mRNA-binding protein 1), sequence (Q9NZI8 whole entry): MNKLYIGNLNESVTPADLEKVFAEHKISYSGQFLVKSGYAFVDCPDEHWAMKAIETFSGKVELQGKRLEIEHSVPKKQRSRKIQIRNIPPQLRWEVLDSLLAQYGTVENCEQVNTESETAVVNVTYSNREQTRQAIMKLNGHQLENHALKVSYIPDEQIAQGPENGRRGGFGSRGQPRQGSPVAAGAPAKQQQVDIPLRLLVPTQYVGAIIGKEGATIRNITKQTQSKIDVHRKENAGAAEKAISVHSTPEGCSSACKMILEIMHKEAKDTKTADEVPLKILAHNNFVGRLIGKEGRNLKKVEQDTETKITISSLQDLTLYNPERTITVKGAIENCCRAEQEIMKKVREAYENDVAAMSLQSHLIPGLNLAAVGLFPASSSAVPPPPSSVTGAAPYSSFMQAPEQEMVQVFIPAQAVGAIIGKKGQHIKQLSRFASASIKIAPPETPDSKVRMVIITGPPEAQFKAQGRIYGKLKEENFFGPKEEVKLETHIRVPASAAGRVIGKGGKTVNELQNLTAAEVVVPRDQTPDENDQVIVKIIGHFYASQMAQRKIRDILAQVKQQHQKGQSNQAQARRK

NC(=O)c1ccccc1N=Cc1ccc(Br)s1 [BTYNB, 2-{[(5-bromo-2-thienyl)methylene]amino}benzamide]
IC50: 5 µM
